# Reference: patent US20030032153A1, “Novel (R)-2,3-butanediol dehydrogenase, methods for producing same, and methods for producing optically active alcohol using the dehydrogenase” (priority 2001, published 2003)
# T1: Glycerol dehydrogenase produced from Escherichia coli W-1485 (Escherichia coli, UniProt P0A9S5)
# T1 construct: host or cells: Escherichia coli W-1485
# T1 sequence (P0A9S5 1-367): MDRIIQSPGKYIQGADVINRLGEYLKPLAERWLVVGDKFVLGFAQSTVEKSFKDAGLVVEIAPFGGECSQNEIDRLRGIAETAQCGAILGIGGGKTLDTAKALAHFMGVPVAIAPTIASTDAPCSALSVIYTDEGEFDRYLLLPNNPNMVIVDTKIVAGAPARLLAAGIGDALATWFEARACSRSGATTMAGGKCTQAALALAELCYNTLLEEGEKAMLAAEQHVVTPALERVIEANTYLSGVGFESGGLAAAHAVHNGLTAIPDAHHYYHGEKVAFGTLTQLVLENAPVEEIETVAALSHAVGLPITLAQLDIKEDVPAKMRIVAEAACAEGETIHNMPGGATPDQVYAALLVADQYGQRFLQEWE
# B1: enzyme obtained in Example 1: NAD+-dependent (R)-2,3-butanediol dehydrogenase purified from Kluyveromyces lactis strain IFO 1267 (SEQ ID NO:2) (protein, listed as Kluyveromyces lactis)
# chain: MRALAYFGKQDIRYTKDLEEPVIETDDGIEIEVSWCGICGSDLHEYLDGPIFFPEDGKVHDVSGLGLPQAMGHEMSGIVSKVGPKVTNIKAGDHVVVEATGTCLDHYTWPNAAHAKDAECAACQRGFYNCCAHLGFMGLGVHSGGFAEKVVVSEKHVVKIPNTLPLDVAALVEPISVSWHAVRISKLQKGQSALVLGAGPIGLATILALQGHGASKIVVSEPAEIRRNQAAKLGVETFDPSEHKEDAVNILKKLAPGGEGFDFAYDCSGVKPTFDTGVHATTFRGMYVNIAIWGHKPIDFKPMDVTLQEKFVTGSMCYTIKDFEDVVQALGNGSIAIDKARHLITGRQKIEDGFTKGFDELMNHKEKNIKILLTPNNHGELDATN
# Columns and labels:
# [1] = system: (R)-2,3-butanediol dehydrogenase; test: Substrate specificity, reduction reaction of the enzyme obtained in Example 1 with ketones; assay type: biochemical, Kluyveromyces lactis; settings: coenzyme NADH; reduction of 4-hydroxy-2-butanone taken as 100
# Method: (§1) A reaction solution containing 50 mM potassium phosphate buffer (pH 6.5), 0.2 mM NADH, 20 mM 4-hydroxy-2-butanone, and the enzyme is reacted at 30° C., and the decrease in absorbance at 340 nm due to the decrease in NADH is measured. 1 U is defined as the amount of enzyme that catalyzes a decrease of 1 μmol NADH in one minute.
# The enzyme obtained in Example 1 was reacted with various alcohols and ketones, and the activity of oxidation and reduction is shown in Table 2. Herein, the relative activity is indicated taking the oxidation of (R)-1,3-butanediol and reduction of 4-hydroxy-2-butanone as 100.
# [2] = system: (R)-2,3-butanediol dehydrogenase; test: Stereoselectivity, oxidation of alcohol isomers by the enzyme obtained in Example 1; assay type: biochemical, Kluyveromyces lactis; settings: coenzyme NAD+; higher oxidation activity between the two isomers taken as 100
# Method: (§2) A reaction solution containing 50 mM potassium phosphate buffer (pH 6.5), 2.5 mM NAD^+, 20 mM (R)-1,3-butanediol, and the enzyme is reacted at 30° C., and the increase in absorbance at 340 nm due to the increase of NADH is measured. 1 U is defined as the amount of enzyme that catalyzes an increase of 1 μmol NADH in one minute. Further, the quantity of the protein is determined by the pigment bonding method using protein assay kit (Biorad).
# The enzyme obtained in Example 1 was reacted with 1,3-butanediol, 1,2-propanediol, 2,3-butanediol, 2-butanol, and 3-chloro-1,2-propanediol, and the activities are shown in Table 3. Herein, the relative activity is indicated, taking the higher oxidation activity between the two isomers as 100. The stereoselectivity for 2,3-butanediol, and 1,2-propandiol of the (R)-2,3-butanediol dehydrogenase according to the present invention was extremely high.
# [3] = system: (R)-2,3-butanediol dehydrogenase; test: Substrate specificity, oxidation reaction of the enzyme obtained in Example 1 with alcohols; assay type: biochemical, Kluyveromyces lactis; settings: for Relative Activity, Oxidation Reaction: coenzyme NAD+, oxidation of (R)-1,3-butanediol taken as 100
# Method: as §2
# Herein, the relative activity is indicated taking the oxidation of (R)-1,3-butanediol and reduction of 4-hydroxy-2-butanone as 100.
# [4] = molecular target: T1, Glycerol dehydrogenase produced from Escherichia coli W-1485; settings: J. Biol. Chem. 259: 2124-2129, 1984; NAD+ reduction; cited from earlier work
# [5] = system: (R)-2,3-butanediol dehydrogenase; test: Substrate specificity, reduction reaction of the enzyme obtained in Example 1 with ketones; assay type: biochemical, Kluyveromyces lactis
# [6] = Reduction activity on 4-hydroxy-2-butanone of the purified enzyme; assay type: biochemical, Kluyveromyces lactis; settings: 4-hydroxy-2-butanone reduction activity
# Method: as §1
# Kluyveromyces lactis strain IFO 1267 was cultured in 1.2 liters of YM medium (glucose 20 g/L, yeast extract 3 g/L, malt extract 3 g/L, peptone 5 g/L, pH 6.0) and the cell bodies were prepared by centrifugation. The resulting wet cell bodies were suspended in 50 mM potassium phosphate buffer (pH 8.0), containing 0.02% 2-mercaptoethanol and 2 mM phenylmethane sulfonylfluoride (PMSF), and after homogenizing with Bead Beater (Biospec), the residue of the cell bodies were removed by centrifugation to obtain a cell-free extract. Protamine sulfate was then added to the cell-free extract followed by centrifugation to obtain enucleated supernatant. […]
# The (R)-1,3-butanediol oxidation activity and 4-hydroxy-2-butanone reduction activity of the enzyme obtained in Example 1 were measured by changing only the temperature of the standard reaction conditions. […]
# [7] = Oxidation activity on (R)-1,3-butanediol of the purified enzyme; assay type: biochemical, Kluyveromyces lactis; settings: (R)-1,3-butanediol oxidation activity
# Method: as §2
# The (R)-1,3-butanediol oxidation activity and 4-hydroxy-2-butanone reduction activity of the enzyme obtained in Example 1 was investigated by changing the pH using potassium phosphate buffer solution, sodium acetate buffer solution, and Britton-Robinson wide-range buffer solution. The oxidation activity and the reduction activity are depicted in FIGS. 2 and 3, respectively, wherein the relative activity are indicated taking the maximum activity as 100. The optimum pH was 6.0 for both reactions, oxidation and reduction.
# The (R)-1,3-butanediol oxidation activity and 4-hydroxy-2-butanone reduction activity of the enzyme obtained in Example 1 were measured by changing only the temperature of the standard reaction conditions. […] The optimum reaction temperature was 37° C. for both reactions, oxidation and reduction.
Molecule,"Relative Activity, Reduction Reaction [1]",Relative Activity (stereoselectivity) [2],also measured
"CC(=O)C(C)=O [2,3-Butanedione]",46400,–,–
"OC[C@@H](O)CCl [(R)-3-chloro-1,2-propanediol]",–,29,–
CCC(=O)CC [3-Pentanone],100,–,–
"CC(=O)CC(C)=O [2,4-Pentanedione]",0,–,–
CCC(C)=O [2-Butanone],31,–,–
OCC(O)CO [Glycerin],–,–,"Relative Activity, Oxidation Reaction [3]: 66"
"C[C@H](O)CCO [(S)-1,3-butanediol]",–,35,–
"C[C@@H](O)[C@@H](C)O [(2R, 3R)-butanediol, (2R,3R)-2,3-butanediol]",–,100,"Vmax [4]: 28.0 U/mg protein; Relative Activity, Oxidation Reaction [3]: 15600"
n-Butanol,–,–,"Relative Activity, Oxidation Reaction [3]: 0"
CCO [Ethanol],–,–,"Relative Activity, Oxidation Reaction [3]: 0"
CC(=O)CCO [4-Hydroxy-2-butanone],100,–,–
"OC[C@H](O)CCl [(S)-3-chloro-1,2-propanediol]",–,100,"Relative Activity, Oxidation Reaction [3]: 128"
"C[C@H](O)[C@H](C)O [(2S,3S)-2,3-butanediol]",–,1,–
CC(C)O [Isopropyl alcohol],–,–,"Relative Activity, Oxidation Reaction [3]: 48"
"C[C@H](O)CO [(S)-1,2-propanediol]",–,1,–
"CCC(=O)C(C)=O [2,3-Pentanedione]",51400,–,–

Molecule,"Relative Activity, Reduction Reaction [1]",Relative Activity (stereoselectivity) [2],also measured
CCOC(=O)CC(C)=O [Ethyl acetoacetate],0,–,–
O=C(CO)c1ccccc1 [2-Hydroxy-acetophenone],360,–,–
CC(C)=O [Acetone],63,–,–
CC(=O)c1ccccc1 [Acetophenone],36,–,–
CCC(=O)CO [1-Hydroxy-2-butanone],12100,–,–
"C[C@@H](O)CCO [(R)-1,3-butanediol]",–,100,"Relative Activity, Oxidation Reaction [3]: 100"
(R)-2-butanol,–,100,"Relative Activity, Oxidation Reaction [3]: 28"
CCOC(=O)CC(=O)CCl [4-Chloro-ethyl acetoacetate],0,–,–
"NC(=O)C1=CN([C@@H]2O[C@H](COP(=O)(O)OP(=O)(O)OC[C@H]3O[C@@H](n4cnc5c(N)ncnc54)[C@H](OP(=O)(O)O)[C@@H]3O)[C@@H](O)[C@H]2O)C=CC1 [NADPH, reduced β-nicotinamide adenine dinucleotide phosphate]",–,–,use as a coenzyme in the reduction reaction [5]: substantially unable to use
"C[C@@H](O)CO [(R)-1,2-propanediol]",–,100,"Relative Activity, Oxidation Reaction [3]: 13800"
CC(=O)CO [Acetol],53600,–,–
"NC(=O)c1ccc[n+]([C@@H]2O[C@H](COP(=O)([O-])OP(=O)(O)OC[C@H]3O[C@@H](n4cnc5c(N)ncnc54)[C@H](OP(=O)(O)O)[C@@H]3O)[C@@H](O)[C@H]2O)c1 [NADP^+, β-nicotinamide adenine dinucleotide phosphate]",–,–,use as a coenzyme in the oxidation reaction [3]: substantially unable to use
CC(=O)C(C)O (stereo not drawn) [Acetoin],101000,–,–
(S)-2-butanol,–,75,–
B1,–,–,"optimum pH, reduction [6]: 6.0; specific activity ([6]; after hydroxyapatite column): about 1.5 U/mg; optimum pH, oxidation [7]: 6.0"
